Source: patent US20260226025A1, “PHARMACEUTICALLY ACCEPTABLE SALT AND CRYSTAL FORM OF TRIAZOLE COMPOUND, AND PREPARATION METHOD THEREFOR” (JIANGSU HENGRUI PHARMACEUTICALS CO., LTD., priority 2023, published 2026)

Tests used:
Type in all cases: physicochemical
[1] = DVS (dynamic vapor sorption) hygroscopicity test
Protocol: The MS analyses were performed using an Agilent 1200/1290 DAD-6110/6120 Quadrupole MS liquid chromatography-mass spectrometry system (manufacturer: Agilent; MS model: 6110/6120 Quadrupole MS), waters ACQuity UPLC-QD/SQD (manufacturer: waters; MS model: waters ACQuity Qda Detector/waters SQ Detector), and THERMO Ultimate 3000-Q Exactive (manufacturer: THERMO; MS model: THERMO Q 15 Exactive). The HPLC analyses were performed using an Agilent 1260DAD high pressure liquid chromatograph (Sunfire C18 150×4.6 mm chromatography column) and a Thermo U3000 high pressure liquid chromatograph (Gimini C18 150× 4.6 mm chromatography column). XRPD refers to X-ray powder diffraction: The analysis was performed using a BRUKER D8 X-ray diffractometer; specific acquisition information: a Cu anode (40 kV, 40 mA), ray: monochromatic Cu-Ka ray (1=1.5418 Å). Scan mode: θ/2θ; scan range: 3-48°. DSC refers to differential scanning calorimetry: The analysis was performed using a METTLER TOLEDO DSC 3+ differential scanning calorimeter, with a temperature ramp rate of 10° C./min, specific temperature ranges shown in corresponding patterns (mostly 25° C.-300° C.), and a nitrogen purge speed of 50 mL/min. TGA refers to thermogravimetric analysis: The analysis was performed using a METTLER TOLEDO TGA 2 thermogravimetric analyzer, with a temperature ramp rate of 10° C./min, specific temperature ranges shown in corresponding patterns (mostly 30° C.-400° C.), and a nitrogen purge speed of 50 mL/min. DVS refers to dynamic vapor sorption: Surface Measurement Systems instrinsic was adopted; the humidity started at 50%, the humidity range of the investigation was 0%-95%, and the humidity was increased in increments of 10%; the criterion was as follows: each gradient mass change dM/dT≤0.002%; TMAX 360 min, two cycles.

[2] = Influencing factor stability study (open containers; light, high temperature, high humidity); details: for physical and chemical stability (conclusion): standing for 1 month, influencing factor conditions
Protocol: Samples of the free-state crystal forms A and B of the compound represented by formula I were spread in open containers and left to stand under light exposure (4500 Lux), high temperature (40° C. and 60° C.), and high humidity (RH 75% and RH 93%) conditions for 1 month to study their stability.
Samples of the crystal forms I and II of the sodium salt of the compound represented by formula I were spread in open containers and left to stand under light exposure (4500 Lux), high temperature (40° C. and 60° C.), and high humidity (RH 75%) conditions for 1 month to study their stability.

[3] = Long-term/accelerated stability; details: for physical and chemical stability (conclusion): long-term accelerated conditions for 6 months
[4] = accelerated experimental conditions, 70% RH
[5] = normal storage conditions, 25° C. and 60% RH
[6] = 25° C./60% RH, 1 month, listed as Free-state crystal form B
[7] = 25° C./60% RH, 2 months, listed as Free-state crystal form B
[8] = 25° C./60% RH, 3 months, listed as Free-state crystal form B
[9] = 25° C./60% RH, 6 months, listed as Free-state crystal form B
[10] = 40° C./75% RH, 1 month, listed as Free-state crystal form B
[11] = 40° C./75% RH, 2 months, listed as Free-state crystal form B
[12] = 40° C./75% RH, 3 months, listed as Free-state crystal form B
[13] = 40° C./75% RH, 6 months, listed as Free-state crystal form B
[14] = Initial, 0, listed as Free-state crystal form B
[15] = 25° C./60% RH, 1 month, listed as Free-state crystal form A
[16] = 25° C./60% RH, 2 months, listed as Free-state crystal form A
[17] = 25° C./60% RH, 3 months, listed as Free-state crystal form A
[18] = 25° C./60% RH, 6 months, listed as Free-state crystal form A
[19] = 40° C./75% RH, 1 month, listed as Free-state crystal form A
[20] = 40° C./75% RH, 2 months, listed as Free-state crystal form A
[21] = 40° C./75% RH, 3 months, listed as Free-state crystal form A
[22] = 40° C./75% RH, 6 months, listed as Free-state crystal form A
[23] = Initial, 0, listed as Free-state crystal form A

In the case of `COCc1ccnc(OCc2c(-c3ccc(O[C@H]4C[C@@H]5CC[C@H](C(=O)O)[C@@H]5C4)c(C)n3)nnn2C)n1` [Crystal form B, (1S,3aS,5S,6aR)-5-((6-(5-(((4-(methoxymethyl)pyrimidin-2-yl)oxy)methyl)-1-methyl-1H-1,2,3-triazol-4-yl)-2-methylpyridin-3-yl)oxy) octahydropentalene-1-carboxylic acid], the hygroscopic weight gain [1, 4] is reported as “about 0.31%”, the “crystal form re-identified after the DVS test” value [1] is reported as “its crystal form did not change” and the hygroscopic weight gain ([1]; extreme conditions, 90% RH) is reported as “about 0.64%”. For the same molecule, the hygroscopic weight gain [1, 5] was “about 0.25%”, the Crystal form ([2]; 40° C., 1 month) was “Crystal form B” and the Purity % ([2]; 40° C., 1 month) was 97.7%. For the same molecule, the Crystal form ([2]; 40° C., 7 days) was “Crystal form B”, the Purity % ([2]; 40° C., 7 days) was 97.7% and the Crystal form ([2]; 40° C., 14 days) was “Crystal form B”. The Purity % ([2]; 40° C., 14 days) was 97.7%, the Crystal form ([2]; 60° C., 1 month) was “Crystal form B” and the Purity % ([2]; 60° C., 1 month) was 97.7%. The Crystal form ([2]; 60° C., 7 days) was “Crystal form B”, the Purity % ([2]; 60° C., 7 days) was 97.7% and the Crystal form ([2]; 60° C., 14 days) was “Crystal form B”. The Purity % ([2]; 60° C., 14 days) was 97.7%, the Crystal form ([2]; 75% RH, 1 month) was “Crystal form B” and the Purity % ([2]; 75% RH, 1 month) was 97.7%. For the same molecule, the Crystal form ([2]; 75% RH, 7 days) was “Crystal form B”, the Purity % ([2]; 75% RH, 7 days) was 97.7% and the Crystal form ([2]; 75% RH, 14 days) was “Crystal form B”. The Purity % ([2]; 75% RH, 14 days) was 97.7%, the Crystal form ([2]; 93% RH, 1 month) was “Crystal form B” and the Purity % ([2]; 93% RH, 1 month) was 97.7%. For the same molecule, the Crystal form ([2]; 93% RH, 7 days) was “Crystal form B”, the Purity % ([2]; 93% RH, 7 days) was 97.7% and the Crystal form ([2]; 93% RH, 14 days) was “Crystal form B”. The Purity % ([2]; 93% RH, 14 days) was 97.7%, the Crystal form ([2]; 4500 Lux, 1 month) was “Crystal form B” and the Purity % ([2]; 4500 Lux, 1 month) was 97.0%. The Crystal form ([2]; 4500 Lux, 7 days) was “Crystal form B”, the Purity % ([2]; 4500 Lux, 7 days) was 97.7% and the Crystal form ([2]; 4500 Lux, 14 days) was “Crystal form B”. For the same molecule, the Purity % ([2]; 4500 Lux, 14 days) was 97.5%, the Crystal form ([2]; Initial, 0 days) was “Crystal form B” and the Purity % ([2]; Initial, 0 days) was 97.7%. The “physical and chemical stability (conclusion)” value [2] was “good physical and chemical stability”, the Crystal form [3, 6] was “Crystal form B” and the Purity % [3, 6] was 97.7%. For the same molecule, the Crystal form [3, 7] was “Crystal form B”, the Purity % [3, 7] was 97.7% and the Crystal form [3, 8] was “Crystal form B”. For the same molecule, the Purity % [3, 8] was 97.7%, the Crystal form [3, 9] was “Crystal form B” and the Purity % [3, 9] was 97.7%. For the same molecule, the Crystal form [3, 10] was “Crystal form B”, the Purity % [3, 10] was 97.7% and the Crystal form [3, 11] was “Crystal form B”. The Purity % [3, 11] was 97.7%, the Crystal form [3, 12] was “Crystal form B” and the Purity % [3, 12] was 97.7%. The Crystal form [3, 13] was “Crystal form B”, the Purity % [3, 13] was 97.7% and the Crystal form [3, 14] was “Crystal form B”. The Purity % [3, 14] was 97.7% and the “physical and chemical stability (conclusion)” value [3] was “good physical and chemical stability”.

In the case of `COCc1ccnc(OCc2c(-c3ccc(O[C@H]4C[C@@H]5CC[C@H](C(=O)O)[C@@H]5C4)c(C)n3)nnn2C)n1` [Crystal form A, (1S,3aS,5S,6aR)-5-((6-(5-(((4-(methoxymethyl)pyrimidin-2-yl)oxy)methyl)-1-methyl-1H-1,2,3-triazol-4-yl)-2-methylpyridin-3-yl)oxy) octahydropentalene-1-carboxylic acid], the hygroscopic weight gain [1, 4] is reported as “about 0.20%”, the “crystal form re-identified after the DVS test” value [1] is reported as “its crystal form did not change” and the hygroscopic weight gain ([1]; extreme conditions, 90% RH) is reported as “about 0.37%”. For the same molecule, the hygroscopic weight gain [1, 5] was “about 0.17%”, the Crystal form ([2]; 40° C., 1 month) was “Crystal form A” and the Purity % ([2]; 40° C., 1 month) was 98.6%. For the same molecule, the Crystal form ([2]; 40° C., 7 days) was “Crystal form A”, the Purity % ([2]; 40° C., 7 days) was 98.6% and the Crystal form ([2]; 40° C., 14 days) was “Crystal form A”. The Purity % ([2]; 40° C., 14 days) was 98.6%, the Crystal form ([2]; 60° C., 1 month) was “Crystal form A” and the Purity % ([2]; 60° C., 1 month) was 98.6%. The Crystal form ([2]; 60° C., 7 days) was “Crystal form A”, the Purity % ([2]; 60° C., 7 days) was 98.6% and the Crystal form ([2]; 60° C., 14 days) was “Crystal form A”. For the same molecule, the Purity % ([2]; 60° C., 14 days) was 98.6%, the Crystal form ([2]; 75% RH, 1 month) was “Crystal form A” and the Purity % ([2]; 75% RH, 1 month) was 98.6%. For the same molecule, the Crystal form ([2]; 75% RH, 7 days) was “Crystal form A”, the Purity % ([2]; 75% RH, 7 days) was 98.6% and the Crystal form ([2]; 75% RH, 14 days) was “Crystal form A”. For the same molecule, the Purity % ([2]; 75% RH, 14 days) was 98.6%, the Crystal form ([2]; 93% RH, 1 month) was “Crystal form A” and the Purity % ([2]; 93% RH, 1 month) was 98.6%. The Crystal form ([2]; 93% RH, 7 days) was “Crystal form A”, the Purity % ([2]; 93% RH, 7 days) was 98.6% and the Crystal form ([2]; 93% RH, 14 days) was “Crystal form A”. The Purity % ([2]; 93% RH, 14 days) was 98.6%, the Crystal form ([2]; 4500 Lux, 1 month) was “Crystal form A” and the Purity % ([2]; 4500 Lux, 1 month) was 97.0%. The Crystal form ([2]; 4500 Lux, 7 days) was “Crystal form A”, the Purity % ([2]; 4500 Lux, 7 days) was 98.3% and the Crystal form ([2]; 4500 Lux, 14 days) was “Crystal form A”. For the same molecule, the Purity % ([2]; 4500 Lux, 14 days) was 98.1%, the Crystal form ([2]; Initial, 0 days) was “Crystal form A” and the Purity % ([2]; Initial, 0 days) was 98.6%. For the same molecule, the “physical and chemical stability (conclusion)” value [2] was “good physical and chemical stability”, the Crystal form [3, 15] was “Crystal form A” and the Purity % [3, 15] was 98.6%. For the same molecule, the Crystal form [3, 16] was “Crystal form A”, the Purity % [3, 16] was 98.6% and the Crystal form [3, 17] was “Crystal form A”. For the same molecule, the Purity % [3, 17] was 98.6%, the Crystal form [3, 18] was “Crystal form A” and the Purity % [3, 18] was 98.6%. The Crystal form [3, 19] was “Crystal form A”, the Purity % [3, 19] was 98.6% and the Crystal form [3, 20] was “Crystal form A”. For the same molecule, the Purity % [3, 20] was 98.6%, the Crystal form [3, 21] was “Crystal form A” and the Purity % [3, 21] was 98.6%. The Crystal form [3, 22] was “Crystal form A”, the Purity % [3, 22] was 98.6% and the Crystal form [3, 23] was “Crystal form A”. For the same molecule, the Purity % [3, 23] was 98.6% and the “physical and chemical stability (conclusion)” value [3] was “good physical and chemical stability”.
